# From paper PMC6560211, “ApoAI-derived peptide increases glucose tolerance and prevents formation of atherosclerosis in mice” (Diabetologia, 2019)
# No end group written: not given here.
# System: DIO C57BL/6NTac mice
# Assay: GTT in diet-induced obesity (DIO) mice
# Format: in vivo, mouse
# Settings: for insulin secretion in GTT: route comparison, n=6
# Procedure: Male C57BL/6NTac mice (Taconic, Ejby, Denmark) at 8–9 weeks of age were acclimatised for 1 week on a normal chow diet, then changed to a high-fat diet for 2 weeks (diet-induced obesity; DIO), followed by GTT as indicated. Male Lepr^db (db/db) mice on a BKS background (Taconic) at 5 weeks of age were maintained on a normal chow diet and GTTs were performed at 5.5 and 14 weeks of age as indicated. Blood glucose levels were measured in fresh blood (C57: OneTouch Ultra2, Lifescan, Milpitas, CA, USA; db/db: GlucoSmart Swing, MSP bodmann, Bobingen, Germany) and insulin levels were assayed in serum using ELISA (Mercodia) at the times indicated in ESM Fig. 2. See ESM Methods for more details.
# The effect of RG54 peptide on glucose disposal was investigated in an established insulin-resistant mouse model. DIO mice were fasted for 9 h followed by a single i.p. dose of RG54 (12 mg/kg), ApoA-I (14 mg/kg), liraglutide (0.1 mg/kg), or an equal volume of NaCl solution. After a further 3 h fasting period, GTTs were performed (Fig. 4a,b).
# Fig. 4 Acute treatment with RG54 improves glucose tolerance during GTTs in three models of type 2 diabetes. Male C57Bl/6 mice fed a high-fat diet for 2 weeks (a–d) or db/db mice at 5.5 (e–h) or 14 (i–l) weeks old were fasted overnight, then treated with a single i.p. injection of NaCl (negative control, 200 μl; C57, n=12; db/db 5.5 weeks, n=6; db/db 14 weeks, n=6), liraglutide (0.1 mg/kg; C57, n=11; db/db 5.5 weeks, n=6; db/db 14 weeks, n=6), ApoA-I (14 mg/kg; C57, n=12; db/db 5.5 weeks, n=6; db/db 14 weeks, n=6) or RG54 (12 mg/kg; C57, n=12; db/db 5.5 weeks, n=6; db/db 14 weeks, n=5). After a further 3 h, mice received an i.p. glucose load (40 mg/mouse for C57; 50 mg/mouse for db/db) followed by blood and plasma collection at the indicated times, and blood glucose (a,e,i) and plasma insulin (b,f,j) concentrations were determined. Total AUC was calculated (mmol/l × min for glucose, pmol/l × min for insulin) and then normalised to the average value of the relevant NaCl control group to give relative AUC (% control) for glucose (c,g,k) and insulin (d,h,l). Values are means ± SEM. *p≤0.05, **p≤0.01, ***p≤0.001 vs NaCl control […]
# We directly compared the i.p. and s.c. injection routes in DIO mice. DIO mice were fasted for 9 h, followed by a single i.p. or s.c. injection of RG54 (12 mg/kg), ApoA-I (14 mg/kg), or an equal volume of NaCl solution. After a further 3 h fasting and incubation period, GTTs were performed. […] Finally, we assessed the dose response of s.c. RG54 to find treatment concentrations with full or partial effects on glycaemic control as compared with our positive control (Fig. 6).
# Male C57Bl/6 mice fed a high-fat diet for 2 weeks were fasted overnight, then treated with a single i.p. or s.c. injection of NaCl (negative control, 200 μl, n=6), ApoA-I (14 mg/kg, n=6) or RG54 (12 mg/kg, n=6). After a further 3 h, all mice received an i.p. glucose load (40 mg/mouse) followed by blood and plasma collection at the indicated times, and blood glucose (a,b) and plasma insulin (d,e) concentrations were determined for all injection routes. Total AUC was calculated (mmol/l × min for glucose, pmol/l × min for insulin) and then normalised to the average value of the relevant NaCl control group to give relative AUC (% control) for glucose (c) and insulin (f). Values are means ± SEM. ***p≤0.001 vs NaCl control […]
# Male C57BL/6NTac mice were purchased from Taconic (Ejby, Denmark) at 8-9 weeks of age, acclimatised for one week on normal chow diet, then changed to a High-Fat Diet (HFD; Research Diets D12492, 60% fat content) for 2 weeks, followed by glucose tolerance testing (GTT) with timings as indicated (ESM Figure 2). Male Leprdb mice (db/db) on BKS background purchased from Taconic (BKS.Cg-m+/+Leprdb/BomTac, Ejby, Denmark) at 5 weeks of age were maintained on normal chow diet and GTTs were performed at 5.5 and 14 weeks of age with timings as indicated (ESM Figure 2). For the GTTs, mice fasted overnight […]
substance,measurement,setting,value
Ac-AEYHAKATEHLSTLSEKAKPALEDLRQGLLPVLESFKVSFLSALEEYTKKLNTQ [RG54],fasting glucose levels,"DIO mice, 3 h treatment, i.p.",significantly lowered
same,fasting insulin levels,"DIO mice, 3 h treatment, i.p.",no concomitant increase
same,insulin sensitivity as measured by QUICKI,"DIO mice, 3 h treatment, i.p.",no change
same,insulin secretion in GTT,"i.p. injection, RG54 12 mg/kg, ApoA-I 14 mg/kg",increased insulin secretion
same,insulin secretion in GTT,"s.c. injection, 12 mg/kg",increased glucose clearance and insulin secretion
same,levels of serum insulin in GTT,"single i.p. dose 12 mg/kg 3 h before GTT, vs NaCl, n=12",significantly increased
